Columns and labels:
[1] = test system: transforming growth factor β1 (TGF-β1) expression; conditions: cited from earlier work
[2] = following nasogastric intake of 20 mg/kg/day of GlcN; cited from earlier work
[3] = test system: surgically manipulated rat knees (osteoarthritis); test: Experimental model of osteoarthritis in rodents, intraarticular injection, cartilage histology (safranin-O); type: in vivo; conditions: 2 mM, transcutaneous intraarticular injections weekly for three weeks
Protocol: For example, in an experimental model of osteoarthritis in rodents, rat knees were surgically manipulated to obtain histological manifestations of osteoarthritis (Janusz et al., Osteoarth, Cart. 10:785-791, 2002). Four weeks […], injured joints were untreated, or treated with a PBS control, a 2 mM glucosamine solution or a 1:1 mixture of 2 mM glucosamine solution and CSMA-aldehyde (chondroitin sulfate methacrylate) (Wang et al., Nat. Mater. 6:385-392, 2007). Treatments were transcutaneous, intraarticular injections weekly for three weeks.

[4] = test system: cell growth, matrix production and gene expression; conditions: narrow window; cited from earlier work

For `N[C@H]1C(O)O[C@H](CO)[C@@H](O)[C@@H]1O` (stereo partly drawn) [glucosamine, Glucosamine], the TGF-β1 expression [1] is given as “upregulated”, the level in serum [2] is given as roughly 6 µM and the “level in synovial fluid” value [2] is given as roughly 0.5 µM. The “cartilage development and organization across treatment groups” value [3] was “best developed and well organized”, the “cartilage development in treated joints (histology, safranin-O)” value ([3]; four weeks after surgery, compared to PBS control and untreated control joints) was “Florid cartilage development” and the “concentration window with beneficial effect on cell growth, matrix production and gene expression” value [4] was “no more than 2 mM”.

Source: patent US20100227836A1, “PARENTERAL ADMINISTRATION OF A GLUCOSAMINE” (THE JOHNS HOPKINS UNIVERSITY, priority 2008, published 2010)
